{"source": "patent US10167283B2", "about": "“β-lactamase inhibitors and uses thereof” (priority 2015, dated 2019)", "key": {"[1]": {"biological_target": "T1, OXA-10 (Pseudomonas aeruginosa, UniProt P14489)", "T1 construct": "purchased", "T1 sequence (P14489 20-266, species assumed)": "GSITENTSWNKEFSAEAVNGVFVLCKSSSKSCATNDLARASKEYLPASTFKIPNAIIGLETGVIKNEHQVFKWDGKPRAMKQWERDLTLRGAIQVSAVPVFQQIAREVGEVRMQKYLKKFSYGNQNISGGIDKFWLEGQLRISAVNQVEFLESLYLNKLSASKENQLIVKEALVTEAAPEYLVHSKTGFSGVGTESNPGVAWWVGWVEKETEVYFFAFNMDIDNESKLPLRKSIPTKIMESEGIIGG", "assay": "β-lactamase inhibition, Nitrocefin hydrolysis", "type": "biochemical", "conditions": "Experiment 3; enzyme 10 nM, Nitrocefin 0.1 mM; read-out: IC50 Type D OXA-10", "how_it_was_run": "(§1)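 Nitrocefin hydrolysis by each β-lactamase was followed as real-time absorbance, with the enzyme stock diluted 1000-fold in reaction solution. Inhibitors were tested at final concentrations from 100 μM down to 0.095 nM in four-fold steps. IC50 was calculated from the hydrolysis rates across inhibitor concentrations.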"}, "[2]": {"tested_on": "Klebsiella pneumoniae 7463kpn-610 (ESBLs)", "assay": "In vitro antibacterial activity on clinically separated CRE strain, agar dilution MIC", "type": "cell-based", "how_it_was_run": "(§2)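 CLSI M100-S23 agar dilution. Strains: ATCC enzyme producers, clinical CRE isolates. Readout MIC, μg/mL.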"}, "[3]": {"tested_on": "Klebsiella pneumoniae 7477kpn-624 (NDM, ESBLs)", "assay": "In vitro antibacterial activity on clinically separated CRE strain, agar dilution MIC", "type": "cell-based", "conditions": "Table 3, 7477kpn-624 Klebsiella pneumoniae", "how_it_was_run": "as §2"}, "[4]": {"tested_on": "Enterobacter cloacae 7498ecl-299 (ESBLs, AmpC)", "assay": "In vitro antibacterial activity on clinically separated CRE strain, agar dilution MIC", "type": "cell-based", "conditions": "Table 3, 7498ecl-299 Enterobacter cloacae", "how_it_was_run": "as §2"}, "[5]": {"tested_on": "Citrobacter freundii 7520cfr-167 (NDM, OXA-10, ESBLs)", "assay": "In vitro antibacterial activity on clinically separated CRE strain, agar dilution MIC", "type": "cell-based", "conditions": "Table 3, 7520cfr-167 Citrobacter freundii", "how_it_was_run": "as §2"}, "[6]": {"tested_on": "Klebsiella pneumoniae 7526kpn-640 (KPC, ESBLs)", "assay": "In vitro antibacterial activity on clinically separated CRE strain, agar dilution MIC", "type": "cell-based", "conditions": "Table 3, 7526kpn-640 Klebsiella pneumoniae", "how_it_was_run": "as §2"}, "[7]": {"tested_on": "Enterobacter cloacae 7513ecl-314 (AmpC)", "assay": "In vitro antibacterial activity on clinically separated CRE strain, agar dilution MIC", "type": "cell-based", "how_it_was_run": "as §2"}, "[8]": {"tested_on": "Klebsiella pneumoniae 7450kpn-597 (KPC, ESBLs)", "assay": "In vitro antibacterial activity on clinically separated CRE strain, agar dilution MIC", "type": "cell-based", "conditions": "Table 3, 7450kpn-597 Klebsiella pneumoniae", "how_it_was_run": "as §2"}, "[9]": {"tested_on": "Escherichia coli 7438eco-639 (NDM, ESBLs)", "assay": "In vitro antibacterial activity on clinically separated CRE strain, agar dilution MIC", "type": "cell-based", "conditions": "Table 3, 7438eco-639 Escherichia coli", "how_it_was_run": "as §2"}, "[10]": {"tested_on": "Enterobacter cloacae 7494ecl-295 (NDM, ESBLs, AmpC)", "assay": "In vitro antibacterial activity on clinically separated CRE strain, agar dilution MIC", "type": "cell-based", "conditions": "Table 3, 7494ecl-295 Enterobacter cloacae", "how_it_was_run": "as §2"}, "[11]": {"tested_on": "Citrobacter freundii 7521cfr-169 (NDM, ESBLs, AmpC)", "assay": "In vitro antibacterial activity on clinically separated CRE strain, agar dilution MIC", "type": "cell-based", "conditions": "Table 3, 7521cfr-169 Citrobacter freundii", "how_it_was_run": "as §2"}, "[12]": {"tested_on": "Escherichia coil 7440eco-641 (ESBLs)", "assay": "In vitro antibacterial activity on clinically separated CRE strain, agar dilution MIC", "type": "cell-based", "conditions": "Table 3, 7440eco-641 Escherichia coil", "how_it_was_run": "as §2"}, "[13]": {"biological_target": "T2, TEM-1 (Escherichia coli, UniProt P62593)", "T2 construct": "purchased", "T2 sequence (P62593 24-286 limits assumed)": "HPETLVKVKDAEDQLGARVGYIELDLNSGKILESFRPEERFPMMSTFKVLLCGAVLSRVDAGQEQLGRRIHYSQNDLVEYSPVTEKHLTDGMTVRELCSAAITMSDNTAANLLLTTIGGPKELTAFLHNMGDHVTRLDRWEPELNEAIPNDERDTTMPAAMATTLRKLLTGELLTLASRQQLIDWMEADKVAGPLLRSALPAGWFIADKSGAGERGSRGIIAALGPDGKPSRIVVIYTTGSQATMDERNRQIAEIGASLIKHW", "assay": "β-lactamase inhibition, Nitrocefin hydrolysis", "type": "biochemical", "conditions": "Nitrocefin 0.1 mM", "how_it_was_run": "as §1"}, "[14]": {"biological_target": "T3, KPC-2 (Klebsiella pneumoniae, UniProt Q9F663)", "T3 construct": "purchased", "T3 sequence (Q9F663 25-293, looked up, species assumed)": "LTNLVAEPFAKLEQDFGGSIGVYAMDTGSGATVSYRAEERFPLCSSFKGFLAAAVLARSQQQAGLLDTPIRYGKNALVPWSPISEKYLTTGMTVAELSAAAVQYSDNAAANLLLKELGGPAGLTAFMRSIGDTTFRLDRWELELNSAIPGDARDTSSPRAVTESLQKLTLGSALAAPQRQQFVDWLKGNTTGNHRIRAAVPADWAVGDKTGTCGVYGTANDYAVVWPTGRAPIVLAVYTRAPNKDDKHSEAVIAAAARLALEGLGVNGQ", "assay": "β-lactamase inhibition, Nitrocefin hydrolysis", "type": "biochemical", "conditions": "Nitrocefin 0.1 mM", "how_it_was_run": "as §1"}, "[15]": {"biological_target": "T4, CTX-M-1 (Escherichia coli, UniProt P28585)", "T4 construct": "purchased", "T4 sequence (P28585 29-291)": "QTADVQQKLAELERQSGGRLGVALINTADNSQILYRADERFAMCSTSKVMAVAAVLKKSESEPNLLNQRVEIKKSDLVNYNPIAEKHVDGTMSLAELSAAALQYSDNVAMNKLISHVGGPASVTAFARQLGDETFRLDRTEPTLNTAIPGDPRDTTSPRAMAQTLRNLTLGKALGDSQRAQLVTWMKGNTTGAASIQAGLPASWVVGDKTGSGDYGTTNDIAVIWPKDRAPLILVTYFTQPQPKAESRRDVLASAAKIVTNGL", "assay": "β-lactamase inhibition, Nitrocefin hydrolysis", "type": "biochemical", "conditions": "Experiment 2; enzyme 0.2 nM, Nitrocefin 0.1 mM", "how_it_was_run": "as §1"}, "[16]": {"conditions": "cited from earlier work"}, "[17]": {"conditions": "Table 3, 7463kpn-610 Klebsiella pneumoniae"}, "[18]": {"conditions": "Table 3, 7513ecl-314 Enterobacter cloacae"}}, "note": "Where a name gives a salt, the structure may show the parent alone. Read-outs that look alike come from different tables or passages of the source.", "data": [{"smiles": "NC(=O)[C@@H]1CC[C@@H]2CN1C(=O)N2OS(=O)(=O)O", "note": "[AVI sodium salt, Avibactam, reference compound]", "values": [{"measurement": "IC50", "setting": "[1]", "value": 25.9, "unit": "µM"}, {"measurement": "MIC", "setting": "[2]; [17]", "value": 8, "unit": "µg/mL"}, {"measurement": "MIC", "setting": "[2]; first Table 4, 7463kpn-610 Klebsiella pneumoniae", "value": 32, "unit": "µg/mL"}, {"measurement": "MIC", "setting": "[3]", "value": "> 8", "unit": "µg/mL"}, {"measurement": "MIC", "setting": "[4]", "value": "> 8", "unit": "µg/mL"}, {"measurement": "MIC", "setting": "[5]", "value": "> 8", "unit": "µg/mL"}, {"measurement": "MIC", "setting": "[6]", "value": "> 8", "unit": "µg/mL"}, {"measurement": "MIC", "setting": "[7]; [18]", "value": "> 8", "unit": "µg/mL"}, {"measurement": "MIC", "setting": "[7]; first Table 4, 7513ecl-314 Enterobacter cloacae", "value": 32, "unit": "µg/mL"}, {"measurement": "MIC", "setting": "[8]", "value": "> 8", "unit": "µg/mL"}, {"measurement": "MIC", "setting": "[9]", "value": 8, "unit": "µg/mL"}, {"measurement": "MIC", "setting": "[10]", "value": "> 8", "unit": "µg/mL"}, {"measurement": "MIC", "setting": "[11]", "value": 8, "unit": "µg/mL"}, {"measurement": "MIC", "setting": "[12]", "value": 8, "unit": "µg/mL"}]}, {"smiles": "O=C(NC1CC2(CNC2)C1)[C@@H]1CC[C@@H]2CN1C(=O)N2OS(=O)(=O)O", "note": "[Compound 2, (2S,5R)-2-((2-azaspiro[3.3]heptan-6-yl)carbamoyl)-7-oxo-1,6-diazabicyclo[3.2.1]octan-6-yl hydrogen sulfate]", "values": [{"measurement": "IC50", "setting": "[13]; Experiment 1, enzyme 0.25 nM, read-out: IC50 ESBLs type TEM-1", "value": 28.5, "unit": "nM"}, {"measurement": "IC50", "setting": "[13]; Experiment 2, enzyme 1 nM, read-out: IC50 TEM-1", "value": 15.2, "unit": "nM"}, {"measurement": "IC50", "setting": "[14]; Experiment 1, read-out: IC50 Type A KPC-2", "value": 61.1, "unit": "nM"}, {"measurement": "IC50", "setting": "[14]; Experiment 2, enzyme 1.28 nM, read-out: IC50 KPC-2", "value": 34.7, "unit": "nM"}, {"measurement": "IC50", "setting": "[1]", "value": 12.2, "unit": "µM"}, {"measurement": "IC50", "setting": "[15]", "value": 42.3, "unit": "nM"}, {"measurement": "MIC", "setting": "[2]; [17]", "value": 2, "unit": "µg/mL"}, {"measurement": "MIC", "setting": "[3]", "value": 2, "unit": "µg/mL"}, {"measurement": "MIC", "setting": "[4]", "value": 2, "unit": "µg/mL"}, {"measurement": "MIC", "setting": "[5]", "value": 2, "unit": "µg/mL"}, {"measurement": "MIC", "setting": "[6]", "value": 4, "unit": "µg/mL"}, {"measurement": "MIC", "setting": "[7]; [18]", "value": 2, "unit": "µg/mL"}, {"measurement": "MIC", "setting": "[8]", "value": 2, "unit": "µg/mL"}, {"measurement": "MIC", "setting": "[9]", "value": 2, "unit": "µg/mL"}, {"measurement": "MIC", "setting": "[10]", "value": 2, "unit": "µg/mL"}, {"measurement": "MIC", "setting": "[11]", "value": 2, "unit": "µg/mL"}, {"measurement": "MIC", "setting": "[12]", "value": 2, "unit": "µg/mL"}]}, {"smiles": "O=C(NC1CCNCC1)[C@@H]1CC[C@@H]2CN1C(=O)N2OS(=O)(=O)O", "note": "[MK-7655, reference compound]", "values": [{"measurement": "MIC", "setting": "[2]; [17]", "value": "> 8", "unit": "µg/mL"}, {"measurement": "MIC", "setting": "[3]", "value": "> 8", "unit": "µg/mL"}, {"measurement": "MIC", "setting": "[4]", "value": "> 8", "unit": "µg/mL"}, {"measurement": "MIC", "setting": "[5]", "value": "> 8", "unit": "µg/mL"}, {"measurement": "MIC", "setting": "[6]", "value": "> 8", "unit": "µg/mL"}, {"measurement": "MIC", "setting": "[7]; [18]", "value": "> 8", "unit": "µg/mL"}, {"measurement": "MIC", "setting": "[8]", "value": "> 8", "unit": "µg/mL"}, {"measurement": "MIC", "setting": "[9]", "value": "> 8", "unit": "µg/mL"}, {"measurement": "MIC", "setting": "[10]", "value": "> 8", "unit": "µg/mL"}, {"measurement": "MIC", "setting": "[11]", "value": "> 8", "unit": "µg/mL"}, {"measurement": "MIC", "setting": "[12]", "value": "> 8", "unit": "µg/mL"}, {"measurement": "T1/2 in clinic", "setting": "[16]", "value": 1.7, "unit": "h"}]}]}
